Test results from ChEMBL document CHEMBL1130443, “Enhanced DNA photocleavage and binding properties of sapphyrin-polyamine conjugates” (Bioorg Med Chem Lett, 1997).

Legend:
Assay type in all cases: nucleic-acid assay
Nucleic Acid [1] = assay: Compound was measured for the inhibition of DNA cleavage against […] plasmid in the presence of 0.2 M sodium dodecyl sulfate (SDS).
Nucleic Acid [2] = assay: Compound was measured for the inhibition of DNA cleavage against […] plasmid in the presence of 2M NaCl.
Nucleic Acid [3] = assay: The C50 value refers to the concentration of compound required to displace 50% of the ethidium bromide from the DNA.; settings: Bos taurus
Nucleic Acid [4] = assay: Compound was measured for the inhibition of DNA cleavage against […] plasmid in the presence of 0.2 M sodium dodecyl sulfate(SDS).

Row | inhibition (Nucleic Acid [1]) [%] | inhibition (Nucleic Acid [2]) [%] | C50 (Nucleic Acid [3]) [µM] | inhibition (Nucleic Acid [4]) [%] | SMILES
1 |  | 93 | 0.114 | 41 | CCc1c(CC)c2cc3nc(cc4[nH]c(c(C)c4CC)c4[nH]c(cc5nc(cc1[nH]2)C(CCC(=O)NCCN(CCN)CCN)=C5C)c(CC)c4C)C(C)=C3CCC(=O)NCCN(CCN)CCN
2 |  | 87 | 0.127 | 47 | CCc1c(CC)c2cc3nc(cc4[nH]c(c(C)c4CC)c4[nH]c(cc5nc(cc1[nH]2)C(CCC(=O)NCCNCCN)=C5C)c(CC)c4C)C(C)=C3CCC(=O)NCCNCCN

Further lines, the compound ahead of its results:

Row | SMILES | inhibition (Nucleic Acid [1]) [%] | inhibition (Nucleic Acid [2]) [%] | C50 (Nucleic Acid [3]) [µM] | inhibition (Nucleic Acid [4]) [%]
3 | CCc1c(CC)c2cc3nc(cc4[nH]c(c(C)c4CC)c4[nH]c(cc5nc(cc1[nH]2)C(CCC(=O)N(CCO)CCO)=C5C)c(CC)c4C)C(C)=C3CCC(=O)N(CCO)CCO | 100 | 92 | 1.2 | 
4 | CCC1=C(CC)c2cc3[nH]c(cc4[nH]c(c(C)c4CC)c4[nH]c(cc5nc(cc1n2)C(CCC(=O)NCCOCCOCCN)=C5C)c(CC)c4C)c(C)c3CCC(=O)NCCOCCOCCN |  | 66 | 0.062 | 31
5 | NCCN(CCN)CCN |  |  | 28 | 
